Holding throughout (format): in vivo
Test [1] relates to Spodoptera littoralis (Egyptian Cotton Leaf Worm). Briefly: Example B6: Spodoptera littoralis, spray on cotton leaf discs. To be noted: foliar, 72 h, application rate of 200 ppm, L1 larvae, 3 days after infestation, read-out: control in at least one of the three categories (mortality, anti-feedant effect, or growth inhibition). The protocol: Example B6: Spodoptera littoralis (Egyptian Cotton Leaf Worm)
Cotton leaf discs were placed onto agar in 24-well microtiter plates and sprayed with aqueous test solutions prepared from 10,000 ppm DMSO stock solutions. After drying the leaf discs were infested with five L1 larvae. The samples were assessed for mortality, anti-feeding effect, and growth inhibition in comparison to untreated samples 3 days after infestation. Control of Spodoptera littoralis by a test sample is given when at least one of the categories mortality, anti-feedant effect, and growth inhibition is higher than the untreated sample.

Test [2] deals with Chilo suppressalis (Striped Rice Stemborer). As to the kind of experiment: Example B3: Chilo suppressalis, artificial diet. The conditions noted are these: 144 h, application rate of 200 ppm, L2 larvae, 6 days after infestation, read-out: control in at least one of the three categories (mortality, anti-feedant effect, or growth inhibition). The protocol:
Example B3: Chilo suppressalis (Striped Rice Stemborer)
24-well microtiter plates with artificial diet were treated with aqueous test solutions prepared from 10,000 ppm DMSO stock solutions by pipetting. After drying, the plates were infested with L2 larvae (6-8 per well). The samples were assessed for mortality, anti-feeding effect, and growth inhibition in comparison to untreated samples 6 days after infestation. Control of Chilo suppressalis by a test sample is given when at least one of the categories mortality, anti-feedant effect, and growth inhibition is higher than the untreated sample.

Test [3] has as its system Plutella xylostella (Diamond Back Moth). Briefly: Example B4: Plutella xylostella, artificial diet, 24-well. To be noted: 192 h, application rate of 200 ppm, eggs, 8 days after infestation, read-out: control in at least one of the two categories (mortality or growth inhibition). The protocol: Example B4: Plutella xylostella (Diamond Back Moth)
24-well microtiter plates with artificial diet were treated with aqueous test solutions prepared from 10,000 ppm DMSO stock solutions by pipetting. After drying, Plutella eggs were pipetted through a plastic stencil onto a gel blotting paper and the plate was closed with it. The samples were assessed for mortality and growth inhibition in comparison to untreated samples 8 days after infestation.
(§1) The following compounds gave an effect of at least 80% control in at least one of the two categories (mortality or growth inhibition) at an application rate of 200 ppm: […]

Test [4] concerns Diabrotica balteata (Corn Root Worm). As to the kind of experiment: Example B1: Diabrotica balteata, spray on maize sprouts. The conditions noted are these: 96 h, application rate of 200 ppm, L2 larvae, 4 days after infestation, read-out: control in at least one of the two categories (mortality or growth inhibition). As for the experimental part: Example B1: Diabrotica balteata (Corn Root Worm)
Maize sprouts placed onto an agar layer in 24-well microtiter plates were treated with aqueous test solutions prepared from 10,000 ppm DMSO stock solutions by spraying. After drying, the plates were infested with L2 larvae (6 to 10 per well). The samples were assessed for mortality and growth inhibition in comparison to untreated samples 4 days after infestation.
as §1

Test [5] has as its system Plutella xylostella (Diamondback Moth). Briefly: Example B9: Plutella xylostella, artificial diet, 96-well. To be noted: 216 h, application rate of 500 ppm, eggs/L1 larvae, 9 days after infestation. The protocol: Example B9: Plutella xylostella (Diamondback Moth)
96-well microtiter plates containing artificial diet were treated with aqueous test solutions, prepared from 10,000 ppm DMSO stock solutions, by a liquid handling robot. After drying, eggs (˜30 per well) were infested onto a netted lid which was suspended above the diet. The eggs hatch and L1 larvae move down to the diet. The samples were assessed for mortality 9 days after infestation.
The following compounds gave an effect of at least 80% mortality at an application rate of 500 ppm: […]

As a reminder, the mortality is the percentage killed. A higher mortality goes with a strong lethal effect.

A value given as a limit tells only on which side of the number the result lay.

For the molecule `CC(NC(=O)c1cc(OCC(F)(F)F)cc(C(F)(F)F)c1)c1nccnc1-n1nccn1` (stereo not shown) [Compound P8, N-[1-[3-(triazol-2-yl)pyrazin-2-yl]ethyl]-3-(2,2,2-trifluoroethoxy)-5-(trifluoromethyl)benzamide], the percent control (mortality, anti-feedant effect or growth inhibition) at 200 ppm in test [1] and in test [2] was no less than 80% each time. Besides, the percent control (mortality or growth inhibition) at 200 ppm in test [3] and in test [4] was no less than 80% each time.

For `CC(c1nccnc1-n1cncn1)N(CC1CC1)C(=O)c1cc(C(F)(F)F)cc(C(F)(F)F)c1` (stereo not shown) [Compound P48, N-(cyclopropylmethyl)-N-[1-[3-(1,2,4-triazol-1-yl)pyrazin-2-yl]ethyl]-3,5-bis(trifluoromethyl)benzamide], the percent control (mortality, anti-feedant effect or growth inhibition) at 200 ppm in test [1] was no less than 80%. The same molecule displayed a mortality at 500 ppm in test [5] of no less than 80%. The percent control (mortality or growth inhibition) at 200 ppm in test [3] and in test [4] was no less than 80% throughout.

As to `CO/N=C(\C)c1cnn(-c2nccnc2C(C)NC(=O)c2cc(C(F)(F)F)cc(C(F)(F)F)c2)n1` (stereo not shown) [Compound P54, N-[1-[3-[4-[(E)-N-methoxy-C-methyl-carbonimidoyl]triazol-2-yl]pyrazin-2-yl]ethyl]-3,5-bis(trifluoromethyl)benzamide], the percent control (mortality, anti-feedant effect or growth inhibition) at 200 ppm in test [1] was no less than 80%. Besides, the percent control (mortality or growth inhibition) at 200 ppm in test [3] and in test [4] was no less than 80% throughout.

On to `CC(NC(=O)c1cc(F)cc(Cl)c1)c1nccnc1-n1nccn1` (stereo not shown) [Compound P25, 3-chloro-5-fluoro-N-[1-[3-(triazol-2-yl)pyrazin-2-yl]ethyl]benzamide], for which, in test [5], the mortality at 500 ppm was no less than 80%. Also, the percent control (mortality or growth inhibition) at 200 ppm in test [3] and in test [4] was no less than 80% throughout.

As for `Cc1cnc(C(C)NC(=O)c2cc(C(F)(F)F)cc(C(F)(F)F)c2)c(-n2nccn2)n1` (stereo not shown) [Compound P18, N-[1-[5-methyl-3-(triazol-2-yl)pyrazin-2-yl]ethyl]-3,5-bis(trifluoromethyl)benzamide], in test [2], the percent control (mortality, anti-feedant effect or growth inhibition) at 200 ppm was no less than 80%. Further, the percent control (mortality or growth inhibition) at 200 ppm in test [3] is no less than 80%.

In the case of `CC(NC(=O)c1cc(C(F)(F)F)cc(C(F)(F)F)c1)c1nccnc1-n1cc(C2CC2)nn1` (stereo not shown) [Compound P42, N-[1-[3-(4-cyclopropyltriazol-1-yl)pyrazin-2-yl]ethyl]-3,5-bis(trifluoromethyl)benzamide], the percent control (mortality, anti-feedant effect or growth inhibition) at 200 ppm in test [1] and in test [2] was no less than 80% in each case. Besides, the mortality at 500 ppm in test [5] was no less than 80%. In test [3], the percent control (mortality or growth inhibition) at 200 ppm was no less than 80%.

As for `CC(NC(=O)c1cc(C(F)(F)F)cc(C(F)(F)F)c1)c1nccnc1-n1nnc2ccccc21` (stereo not shown) [Compound P51, N-[1-[3-(benzotriazol-1-yl)pyrazin-2-yl]ethyl]-3,5-bis(trifluoromethyl)benzamide], the mortality at 500 ppm in test [5] was no less than 80%. Also, in test [3], the percent control (mortality or growth inhibition) at 200 ppm was no less than 80%.

In the case of `Cc1cnn(-c2nccnc2C(C)NC(=O)c2cc(C(F)(F)F)cc(C(F)(F)F)c2)n1` (stereo not shown) [Compound P1, N-[1-[3-(4-methyltriazol-2-yl)pyrazin-2-yl]ethyl]-3,5-bis(trifluoromethyl)benzamide], the percent control (mortality, anti-feedant effect or growth inhibition) at 200 ppm in test [2] is no less than 80%. In test [5], this molecule came in with a mortality at 500 ppm of no less than 80%. The percent control (mortality or growth inhibition) at 200 ppm in test [3] was no less than 80%.

In turn, `COc1cc(C(=O)NC(C)c2nccnc2-n2nccn2)cc(Cl)n1` (stereo not shown) [Compound P32, 2-chloro-6-methoxy-N-[1-[3-(triazol-2-yl)pyrazin-2-yl]ethyl]pyridine-4-carboxamide] gave a mortality at 500 ppm in test [5] of no less than 80%.

Turning to `Cc1cn(-c2nccnc2C(C)NC(=O)c2cc(C(F)(F)F)cc(C(F)(F)F)c2)nn1` (stereo not shown) [Compound P41, N-[1-[3-(4-methyltriazol-1-yl)pyrazin-2-yl]ethyl]-3,5-bis(trifluoromethyl)benzamide], the percent control (mortality, anti-feedant effect or growth inhibition) at 200 ppm in test [1] and in test [2] was no less than 80% each time. This molecule also had a mortality at 500 ppm in test [5] of no less than 80%. The percent control (mortality or growth inhibition) at 200 ppm in test [3] is no less than 80%.

Consider `CC(NC(=O)c1cc(C(F)(F)F)cc(C(F)(F)F)c1)c1nccnc1-n1ccnn1` (stereo not shown) [Compound P44, N-[1-[3-(triazol-1-yl)pyrazin-2-yl]ethyl]-3,5-bis(trifluoromethyl)benzamide], for which the percent control (mortality, anti-feedant effect or growth inhibition) at 200 ppm in test [1] and in test [2] was no less than 80% each time. In addition, the percent control (mortality or growth inhibition) at 200 ppm in test [3] and in test [4] was no less than 80% in each case.

For `CC(NC(=O)c1cc(C(F)(F)F)cc(C(F)(F)F)c1)c1nccnc1-n1cccn1` (stereo not shown) [Compound P45], the percent control (mortality or growth inhibition) at 200 ppm in test [4] is no less than 80%.

Consider `CC(=O)c1cn(-c2nccnc2C(C)NC(=O)c2cc(C(F)(F)F)cc(C(F)(F)F)c2)nn1` (stereo not shown) [Compound P55, N-[1-[3-(4-acetyltriazol-1-yl)pyrazin-2-yl]ethyl]3,5-bis(trifluoromethyl)benzamide], for which the percent control (mortality, anti-feedant effect or growth inhibition) at 200 ppm in test [2] was no less than 80%. In addition, the percent control (mortality or growth inhibition) at 200 ppm in test [3] was no less than 80%.

As to `Cc1cc(C)cc(C(=O)NC(C)c2nccnc2-n2nccn2)c1` (stereo not shown) [Compound P24, 3,5-dimethyl-N-[1-[3-(triazol-2-yl)pyrazin-2-yl]ethyl]benzamide], the mortality at 500 ppm in test [5] is no less than 80%.

Regarding `CC(c1nccnc1-n1nccn1)N(CC1CC1)C(=O)c1cc(C(F)(F)F)cc(C(F)(F)F)c1` (stereo not shown) [Compound P50, N-(cyclopropylmethyl)-N-[1-[3-(triazol-2-yl)pyrazin-2-yl]ethyl]-3,5-bis(trifluoromethyl)benzamide], the percent control (mortality, anti-feedant effect or growth inhibition) at 200 ppm in test [1] was no less than 80%. The molecule further registered a mortality at 500 ppm in test [5] of no less than 80%. Further, the percent control (mortality or growth inhibition) at 200 ppm in test [3] and in test [4] was no less than 80% throughout.

As to `CC(NC(=O)c1cc(C(F)(F)F)cc(C(F)(F)F)c1)c1nccnc1-n1cc(C#N)cn1` (stereo not shown) [Compound P47, N-[1-[3-(4-cyanopyrazol-1-yl)pyrazin-2-yl]ethyl]-3,5-bis(trifluoromethyl)benzamide], the percent control (mortality, anti-feedant effect or growth inhibition) at 200 ppm in test [1] and in test [2] was no less than 80% in each case. The percent control (mortality or growth inhibition) at 200 ppm in test [3] and in test [4] was no less than 80% in each case.

Consider `CC(=O)c1cnn(-c2nccnc2C(C)NC(=O)c2cc(C(F)(F)F)cc(C(F)(F)F)c2)n1` (stereo not shown) [Compound P57, N-[1-[3-(4-acetyltriazol-2-yl)pyrazin-2-yl]ethyl]-3,5-bis(trifluoromethyl)benzamide], for which, in test [2], the percent control (mortality, anti-feedant effect or growth inhibition) at 200 ppm was no less than 80%. In addition, the percent control (mortality or growth inhibition) at 200 ppm in test [3] was no less than 80%.

Take `CC(NC(=O)c1cc(C(F)(F)F)cc(C(F)(F)F)c1)c1nccnc1-n1ncc(I)n1` (stereo not shown) [Compound P53, N-[1-[3-(4-iodotriazol-2-yl)pyrazin-2-yl]ethyl]-3,5-bis(trifluoromethyl)benzamide]: the percent control (mortality, anti-feedant effect or growth inhibition) at 200 ppm in test [1] and in test [2] was no less than 80% in each case. The percent control (mortality or growth inhibition) at 200 ppm in test [3] and in test [4] was no less than 80% throughout.

Values taken from patent publication US20220289715A1, “PESTICIDALLY ACTIVE PYRAZINE-AMIDE COMPOUNDS” (priority 2019, published 2022).
